Experiments:
[1] = Permeability test (MDR1-MDCKII monolayer, bidirectional transport); format: in vitro ADME; conditions: dog; for efflux ratio at 2.5 h, 2 µM: MDCK-MDR1, pH 7.4, ER = Papp (BA)/ Papp (AB); for Papp A→B at 2.5 h, 2 µM: MDCK-MDR1, pH 7.4, pH 7.40, 2.5 hours, A to B, read-out: Apparent permeability coefficient (Papp (AB), 10^-6 cm/s)
Protocol: (§1) Experimental objective: The permeability and efflux ratio of the compound of the present disclosure were determined using the MDR1-MDCKII monolayer cell model to assess its membrane permeability and potential for P-gp-mediated efflux transport.
(§2) Experimental protocol: MDR1-MDCKII cells (obtained from the Netherlands Cancer Institute) were seeded in 96-well plates (obtained from Corning) at a cell density of 3.33 × 10^5 cells/mL and cultured for 4 to 7 days to form confluent cell monolayers. Hank's balanced salt solution containing 10 mM HEPES (pH 7.40) was used as the transport buffer. The test compound was evaluated for bidirectional transport at a concentration of 2 µM, with the DMSO concentration in the incubation system maintained below 1%. After adding the samples, the cell plate was incubated at 37±1°C, 5% CO2, and saturated humidity for 2.5 hours. All samples were quantitatively analyzed using the LC-MS/MS method. The apparent permeability coefficient (Papp, cm/s) and efflux ratio (ER) were calculated using the following formula. Apparent permeability coefficient (Papp, cm/s) was calculated using the following formula: Papp = (dCr/dt) x Vr / (A x C0). Herein, dCr/dt represents the cumulative concentration of the compound at the receiving end per unit time (µM/s); Vr is the volume of the solution at the receiving end (with solution volumes at the apical and basolateral ends being 0.075 mL and 0.250 mL, respectively); A is the relative surface area of the cell monolayer (0.143 cm^2); C0 is the initial concentration of the test substance at the dosing end (µM) or the peak area ratio of the reference substance. The efflux ratio was calculated using the following formula: ER = Papp (BA)/ Papp (AB). Table 7: Permeability test results of compounds

[2] = in vivo; conditions: cynomolgus monkey, po, 1 mg/kg
[3] = in vitro; conditions: cynomolgus monkey, plasma
[4] = in vitro; conditions: human, microsomes
[5] = in vitro; conditions: human, plasma
[6] = in vitro; conditions: rat, plasma
[7] = In vivo pharmacokinetic study in cynomolgus monkeys; conditions: male cynomolgus monkeys, oral 3 mg/kg
[8] = tested on: MDR1-MDCKII cells; test: Permeability test (MDR1-MDCKII monolayer, bidirectional transport); format: in vitro ADME; conditions: 2 µM
Protocol: as §1, §2

[9] = Plasma protein binding rate test (equilibrium dialysis), human plasma; conditions: 2 µM, equilibrium dialysis 4 hours, 37°C
[10] = In vitro liver microsome metabolic stability study; conditions: human liver microsomes 0.5 mg/mL, 1 µM compound, up to 60 minutes
[11] = Plasma protein binding rate test (equilibrium dialysis), SD rat plasma; conditions: 2 µM, equilibrium dialysis 4 hours, 37°C
[12] = Plasma protein binding rate test (equilibrium dialysis), cynomolgus monkey plasma; conditions: 2 µM, equilibrium dialysis 4 hours, 37°C
[13] = In vivo pharmacokinetics study in rats; conditions: male SD rats, oral 2 mg/kg

SMILES	efflux ratio at 2.5 h, 2 µM [1]	Papp A→B at 2.5 h, 2 µM [1]	AUC(0-t) at 24 h [2]	Cmax [2]	bioavailability [2]	half-life [2]	fraction unbound at 4 h, 2 µM [3]	CLint scaled at 1 µM [4]	fraction unbound at 4 h, 2 µM [5]	fraction unbound at 4 h, 2 µM [6]	also measured
CCC(=O)NC1CCCc2c(-c3cc4c(s3)N(C)C(=O)CC4)cncc21 (single isomer, unassigned) [Compound 017]	0.95	23.2 ×10⁻⁶ cm/s	7.29 µM·h	1070 nM	66%	5.3 h	0.219	< 8.6 mL/min/kg	0.173	0.051	
CCC(=O)N[C@@H]1CCCc2c(-c3ccc4c(ccc(=O)n4C)c3)cncc21 (single isomer, unassigned) [Compound 001]											F (%) [7]: 120%; AUC0-24h ([7]; plasma): 23.174 µM·h; Cmax ([7]; plasma): 4000 nM; T1/2 ([7]; plasma): 4.99 h; Efflux ratio (ER) ([8]; ER = Papp (BA)/ Papp (AB), 150 min): 1.76; Apparent permeability coefficient (Papp (AB), 10^-6 cm/s) ([8]; pH 7.40, 2.5 hours, A to B): 17.2 10^-6 cm/s; Human plasma protein binding rate (%) [9]: 76.1%; Intrinsic hepatic clearance CLint(liver) [10]: <8.6 mL/min/kg; Plasma protein binding rate (%) in SD rats [11]: 92.1%; Plasma protein binding rate (%) in cynomolgus monkeys [12]: 74.6%; F (%) [13]: 80%; AUC0-24h ([13]; plasma): 59.097 µM·h; Cmax ([13]; plasma): 7640 nM; T1/2 ([13]; plasma): 4.61 h
CCC(=O)NC1CCCc2c(-c3cc4ccc(=O)n(C)c4s3)cncc21 (single isomer, unassigned) [Compound 023]	1.28	20.8 ×10⁻⁶ cm/s	8.92 µM·h	1320 nM	76.5%	4.8 h	0.31	< 8.6 mL/min/kg	0.304	0.096	

From patent EP4711361A1, “NITROGEN-CONTAINING HETEROCYCLIC COMPOUND AND USE THEREOF” (Jiangsu Deyuan Pharmaceutical Co.,Ltd., priority 2023, dated 2024)
